Data: paper PMC1636466 (Nucleic Acids Research, 2006)

Biological target: Vent(exo-) DNA polymerase (Thermococcus litoralis, UniProt P30317, D141A/E143A)
Conditions: natural primer/template PA/T0, 40 °C, supplied reaction buffer, dATP 10–800 μM

Nc1ncnc2c1ncn2[C@H]1C[C@H](O)[C@@H](COP(=O)(O)OP(=O)(O)OP(=O)(O)O)O1 [dATP]
Km: 5.52 µM
